Results as given in patent US20220242874A1, “CAMPTOTHECIN DERIVATIVES” (SUN PHARMA ADVANCED RESEARCH COMPANY LIMITED, priority 2019, published 2022).
Counter-ions that a name gives are not always drawn. Like-named read-outs stand apart in the source and are kept apart here.

What was measured:
NCI H187 cells = test: In-vitro cancer cell growth inhibition assay (MTT); assay type: cell-based; conditions: Homo sapiens
Description: The compounds of the present invention were evaluated for their ability to inhibit the growth of various cell line models of small cell lung cancer (SCLC), colon cancer, pancreatic cancer and triple negative breast cancer (TNBC) in-vitro. Details of the cell lines and their respective complete growth media are described in Table 3. The growth inhibition assay was carried out as described below. Briefly, cells in complete growth media were seeded in 96-well plates at appropriate cell densities (seeding density details described in Table 3) and incubated at 37° C., 5% CO2 (3-4 hours for NCI-H526, NCI-H69, NCI-H187 and overnight for the rest of the cells). Serial dilutions of test compound in DMSO were added to the cells while maintaining the final DMSO concentration of 0.4%-0.5% in the well. […] Subsequently, MTT (final concentration 0.5 mg/mL in media) was incubated with the cells at 37° C., 5% CO2 for 4-5 hours. The formazan crystals were dissolved overnight at 37° C., 5% CO2 using 100 μL extractant (10% SDS in 0.01N HCl) and quantified using absorbance at 570 nm with reference wavelength 630 nm. Growth inhibition was represented as percent decrease in absorbance compared to vehicle treated cells.

[1] = Buffer stability (phosphate buffer, 37° C., HPLC); assay type: physicochemical
Description: The representative compounds were first dissolved in a minimum quantity of DMSO in a volumetric flask and diluted up to the mark with diluent (water: acetonitrile 30:70). […] After the elapsed time, the buffer samples were diluted 4 times with acetonitrile and injected into an HPLC system. Quantification of representative compounds was done by HPLC.
HPLC method: Chromatographic separation was achieved on a Hypersil BDS C18 (100×4.6 mm, 5 μ) column using 25 mM KH2PO4 buffer (pH 7 with TEA): acetonitrile, 90:10 v/v as mobile phase-A and 25 mM KH2PO4 buffer (pH 7 with TEA): acetonitrile 30:70 v/v as mobile phase-B. The gradient started with initially 5% B to 45% B in 10 mins followed by 80% B in 22 mins and held up to 25 mins and then returned to initial conditions at 26 mins and continued up to 30 mins. The injection volume was kept 10 μL and the flow rate was kept at 1.0 mL/min. The UV-Vis Detector was set at 220 nm, the column oven was set at 37° C. and the sample cooler was set at […]. Total chromatographic runtime was 30 min.

HT-29 cells = test: In-vitro cancer cell growth inhibition assay (MTT); assay type: cell-based; conditions: Homo sapiens, read-out: IC50 (nM) HT-29
Description: (§1) The compounds of the present invention were evaluated for their ability to inhibit the growth of various cell line models of small cell lung cancer (SCLC), colon cancer, pancreatic cancer and triple negative breast cancer (TNBC) in-vitro. Details of the cell lines and their respective complete growth media are described in Table 3. The growth inhibition assay was carried out as described below. Briefly, cells in complete growth media were seeded in 96-well plates at appropriate cell densities (seeding density details described in Table 3) and incubated at 37° C., 5% CO2 (3-4 hours for NCI-H526, NCI-H69, NCI-H187 and overnight for the rest of the cells). Serial dilutions of test compound in DMSO were added to the cells while maintaining the final DMSO concentration of 0.4%-0.5% in the well. Plates were incubated for 96-144 h (the exact duration for each assay is described in Table 3) at 37° C., 5% CO2. Subsequently, MTT (final concentration 0.5 mg/mL in media) was incubated with the cells at 37° C., 5% CO2 for 4-5 hours. The formazan crystals were dissolved overnight at 37° C., 5% CO2 using 100 μL extractant (10% SDS in 0.01N HCl) and quantified using absorbance at 570 nm with reference wavelength 630 nm. Growth inhibition was represented as percent decrease in absorbance compared to vehicle treated cells.

MX-1 cells = test: In-vitro cancer cell growth inhibition assay (MTT); assay type: cell-based; conditions: Homo sapiens, read-out: IC50 (nM) MX-1
Description: as §1

MDA-MB-231 cells = test: In-vitro cancer cell growth inhibition assay (MTT); assay type: cell-based; conditions: Homo sapiens, read-out: IC50 (nM) MDA-MB-231
Description: as §1

NCI H69 cells = test: In-vitro cancer cell growth inhibition assay (MTT); assay type: cell-based; conditions: Homo sapiens, read-out: IC50 (nM) NCI H69
Description: as §1

NCI H526 cells = test: In-vitro cancer cell growth inhibition assay (MTT); assay type: cell-based; conditions: Homo sapiens, NCI-H526, 96-144 h, read-out: IC50 (nM) NCI H526
Description: as §1

MDA-MB-468 cells = test: In-vitro cancer cell growth inhibition assay (MTT); assay type: cell-based; conditions: Homo sapiens, read-out: IC50 (nM) MDA-MB-468
Description: as §1

PANC-1 cells = test: In-vitro cancer cell growth inhibition assay (MTT); assay type: cell-based; conditions: Homo sapiens, read-out: IC50 (nM) PANC-1
Description: as §1

[2] = NCI-H187, read-out: IC50 (nM) NCI H187

Q: What does the source list for `CCc1c2c(nc3ccc(O)cc13)-c1cc3c(c(=O)n1C2)COC(=O)[C@@]3(CC)OC(=O)OCCSSCCNC(=O)c1ccc(N2CCN(C)CC2)cc1` [Compound I.5, 2-(2-{4-[4-Methylpiperazin-1-yl]benzoylamino}ethyldisulfanyl) ethyl [(4S)-4,11-diethyl-3,4,12,14-tetrahydro-9-hydroxy-1H-pyrano[3′,4′:6,7]indolizino[1,2-b]quinoline-3,14-(4H,12H)dione-4-yl]carbonate dihydrochloride]?
A: IC50 (NCI H187 cells; [2]): 0.77 nM; % of Unconverted Compounds of Formula I ([1]; pH 4.7, 0 hr, 100 μg/ml (footnote *)): 100%; % of Unconverted Compounds of Formula I ([1]; pH 4.7, 2 hr, 100 μg/ml (footnote *)): 82.5%; % of Unconverted Compounds of Formula I ([1]; pH 4.7, 4 hr, 100 μg/ml (footnote *)): 86.3%; % of Unconverted Compounds of Formula I ([1]; pH 4.7, 6 hr, 100 μg/ml (footnote *)): 79.9%; % of Unconverted Compounds of Formula I ([1]; pH 4.7, 8 hr, 100 μg/ml (footnote *)): 77.2%; % of Unconverted Compounds of Formula I ([1]; pH 6.0, 0 hr, 100 μg/ml (footnote *)): 100%; % of Unconverted Compounds of Formula I ([1]; pH 6.0, 2 hr, 100 μg/ml (footnote *)): 94.1%; % of Unconverted Compounds of Formula I ([1]; pH 6.0, 4 hr, 100 μg/ml (footnote *)): 100%; % of Unconverted Compounds of Formula I ([1]; pH 6.0, 6 hr, 100 μg/ml (footnote *)): 100%; % of Unconverted Compounds of Formula I ([1]; pH 6.0, 8 hr, 100 μg/ml (footnote *)): 98.4%; % of Unconverted Compounds of Formula I ([1]; pH 7.4, 0 hr, 100 μg/ml (footnote *)): 100%; % of Unconverted Compounds of Formula I ([1]; pH 7.4, 2 hr, 100 μg/ml (footnote *)): 88.0%; % of Unconverted Compounds of Formula I ([1]; pH 7.4, 4 hr, 100 μg/ml (footnote *)): 82.8%; % of Unconverted Compounds of Formula I ([1]; pH 7.4, 6 hr, 100 μg/ml (footnote *)): 82.5%; % of Unconverted Compounds of Formula I ([1]; pH 7.4, 8 hr, 100 μg/ml (footnote *)): 82.4%; IC50 (HT-29 cells; HT-29, 96 h): 48.3 nM; IC50 (MX-1 cells; MX1, 144 h): 4.6 nM; IC50 (MDA-MB-231 cells; MDA-MB-231, 96 h): 119 nM; IC50 (NCI H69 cells; NCI-H69, 144 h): 1.3 nM; IC50 (NCI H526 cells): 2.06 nM; IC50 (MDA-MB-468 cells; MDA-MB-468, 96 h): 9.3 nM; IC50 (PANC-1 cells; PANC-1, 96 h): 910 nM

Q: Which IC50 (NCI H187 cells; [2]) does the source give for `CCc1c2c(nc3ccc(O)cc13)-c1cc3c(c(=O)n1C2)COC(=O)[C@@]3(CC)OC(=O)OCCSSCCOC(=O)Nc1ccc(N2CCN(C)CC2)cc1.Cl` [Compound I.2, 2-(2-{N-[4-(4-Methylpiperazin-1-yl)phenyl]carbamoyloxy}ethyldisulfanyl)ethyl [(4S)-4,11-diethyl-3,4,12,14-tetrahydro-9-hydroxy-1H-pyrano[3′,4′:6,7]indolizino[1,2-b]quinoline-3,14-(4H,12H)dione-4-yl] carbonate hydrochloride] here?
A: The IC50 was 0.27 nM.

Q: What about the “% of Unconverted Compounds of Formula I” value ([1]; pH 4.7, 0 hr, 200 μg/ml) of the same molecule?
A: Its value is 100%.

Q: What about the “% of Unconverted Compounds of Formula I” value ([1]; pH 4.7, 2 hr, 200 μg/ml) of the same molecule?
A: Its value is 97.3%.

Q: And the “% of Unconverted Compounds of Formula I” value ([1]; pH 4.7, 4 hr, 200 μg/ml)?
A: Its value is 100%.

Q: What about the “% of Unconverted Compounds of Formula I” value ([1]; pH 4.7, 6 hr, 200 μg/ml) of the same molecule?
A: Its value is 100%.

Q: And the “% of Unconverted Compounds of Formula I” value ([1]; pH 4.7, 8 hr, 200 μg/ml)?
A: Its value is 100%.

Q: What about the “% of Unconverted Compounds of Formula I” value ([1]; pH 6.0, 0 hr, 200 μg/ml) of the same molecule?
A: Its value is 100%.

Q: And the “% of Unconverted Compounds of Formula I” value ([1]; pH 6.0, 2 hr, 200 μg/ml)?
A: The value was 95.5%.

Q: What about the “% of Unconverted Compounds of Formula I” value ([1]; pH 6.0, 4 hr, 200 μg/ml) of the same molecule?
A: Its value is 98.5%.

Q: And the “% of Unconverted Compounds of Formula I” value ([1]; pH 6.0, 6 hr, 200 μg/ml)?
A: Its value is 100%.

Q: And the “% of Unconverted Compounds of Formula I” value ([1]; pH 6.0, 8 hr, 200 μg/ml)?
A: Its value is 100%.

Q: What about the “% of Unconverted Compounds of Formula I” value ([1]; pH 7.4, 0 hr, 200 μg/ml) of the same molecule?
A: Its value is 100%.

Q: And the “% of Unconverted Compounds of Formula I” value ([1]; pH 7.4, 2 hr, 200 μg/ml)?
A: Its value is 90.1%.

Q: And the “% of Unconverted Compounds of Formula I” value ([1]; pH 7.4, 4 hr, 200 μg/ml)?
A: Its value is 93.5%.

Q: What about the “% of Unconverted Compounds of Formula I” value ([1]; pH 7.4, 6 hr, 200 μg/ml) of the same molecule?
A: Its value is 88.7%.

Q: And the “% of Unconverted Compounds of Formula I” value ([1]; pH 7.4, 8 hr, 200 μg/ml)?
A: Its value is 91.6%.

Q: What about the IC50 (HT-29 cells; HT-29, 96 h) of the same molecule?
A: Its IC50 is 31 nM.

Q: What about the IC50 (MX-1 cells; MX1, 144 h) of the same molecule?
A: Its IC50 is 5.9 nM.

Q: And the IC50 (MDA-MB-231 cells; MDA-MB-231, 96 h)?
A: The IC50 was 112 nM.

Q: And the IC50 (NCI H69 cells; NCI-H69, 144 h)?
A: The IC50 was 1.3 nM.

Q: And the IC50 (NCI H526 cells)?
A: The IC50 was 1.58 nM.

Q: What about the IC50 (MDA-MB-468 cells; MDA-MB-468, 96 h) of the same molecule?
A: The IC50 was 6.6 nM.

Q: What about the IC50 (PANC-1 cells; PANC-1, 96 h) of the same molecule?
A: Its IC50 is 508 nM.

Q: With `CCc1c2c(nc3ccc(OC(=O)N4CCC(N5CCCCC5)CC4)cc13)-c1cc3c(c(=O)n1C2)COC(=O)[C@]3(O)CC` [Irinotecan HCl trihydrate, reference compound] as the molecule, how does the IC50 (NCI H187 cells; NCI-H187, MTT, read-out: IC50 (nM) NCI H187) read?
A: Its IC50 is 385 nM.

Q: And the IC50 (HT-29 cells; HT-29, 96 hr, MTT)?
A: The IC50 was 14000 nM.

Q: What about the IC50 (MX-1 cells; MX1, MX-1, 144 hr, MTT) of the same molecule?
A: Its IC50 is 5910 nM.

Q: And the IC50 (MDA-MB-231 cells; MDA-MB-231, 96 hr, MTT)?
A: The IC50 was 21700 nM.

Q: What about the IC50 (NCI H69 cells; NCI-H69, 144 hr, MTT) of the same molecule?
A: Its IC50 is 473 nM.

Q: What about the IC50 (NCI H526 cells; MTT) of the same molecule?
A: The IC50 was 750 nM.

Q: What about the IC50 (MDA-MB-468 cells; MDA-MB-468, 96 hr, MTT) of the same molecule?
A: The IC50 was 4580 nM.

Q: What about the IC50 (PANC-1 cells; PANC-1, 96 hr, MTT) of the same molecule?
A: Its IC50 is 23000 nM.
